Measured values from patent US11530384B2, “Use of matrix cells for preparing a micro hair follicle” (L'OREAL, priority 2015, dated 2022).
Entries after “also recorded” stand apart in the source; their conditions may differ.

System: matrix cells
Test: Culture-amplification of hair matrix cells on a 3T3 feeder layer in the presence of Y27632
Assay type: cell-based, human
Settings: matrix cells cultured on mitomycin-blocked 3T3 feeder layer, Green-based medium, 10 μM of Y27632
Source text: Some authors have proposed culturing these cells in coculture with papilla fibroblasts. The drawback of this method is that the culture obtained is not homogeneous, the matrix cells are contaminated with the dermal fibroblasts from the papilla used in coculture (Reynolds A J, Lawrence […] Human hair follicle germinative epidermal cell culture. J Invest Dermatol. 1993 October; 101(4):634-8). Luo et al. have proposed a technique of microdissection followed by culture of the matrix cells on a plastic support (Luo et al: Methods for culturing hair follicle epithelial matrix cells; Reg. number: H1610; Nov. 5, 1996). However, this microdissection technique results in a very low yield of matrix cells. The applicant has isolated the matrix cells and developed a process for culturing these cells. […] keratinocytes until they reach confluence while forming regular clusters. The cells are amplified according to the technique of Rheinwald and Green (Cell, vol. 6, 331-344,1975) by culturing on a feeder support constituted of fibroblasts in a suitable medium known to those skilled in the art, in the presence of growth factors, in particular amino acids, serum, cholera toxin, insulin, triiodothyronine and pH buffer solution. […]

C[C@@H](N)[C@H]1CC[C@H](C(=O)Nc2ccncc2)CC1 [Y27632]
differentiation of matrix cells into keratinocytes positive for K85 K35 markers: differentiation thereof into keratinocytes that are positive for the K85 K35 markers; also recorded: differentiate into K85 K35 keratinocytes | proliferation of matrix cells in culture: considerable proliferation; also recorded: proliferate rapidly
